Assay results as given in patent US12194124B2, “Personal care compositions for treating odor causing bacteria and methods for the same” (Colgate-Palmolive Company, priority 2019, dated 2025).

Test system: S. Epidermidis
Assay: Growth inhibition assay in 96-well plate, optical density of S. Epidermidis
Assay type: cell-based, Staphylococcus epidermidis
Method: The efficacy of 2-butyl octanol for selectively promoting, inhibiting, reducing, and/or treating bacterial growth was evaluated. Particularly, the efficacy of 2-butyl octanol for selectively promoting, inhibiting, reducing, and/or treating bacterial growth of Corynebacterium and Staphylococcus was evaluated. To evaluate the efficacy, an active solution was prepared by emulsifying 2-butyl octanol with a nonionic surfactant, namely, Polysorbate 80. The active solution included the 2-butyl octanol and the Polysorbate 80 in a ratio of about 83:17. Both positive controls (including no active solution) and negative controls (including no bacteria) were also prepared.
A 96-well plate was utilized to evaluate the growth of the respective bacteria at varying dilutions. Each of the wells of a 96-well plate was aseptically filled with about 100 μL of Tryptic Soy Broth (TSB). In the first well of each row, about 100 μL of either the active solution (including the 2-butyl octanol and Polysorbate 80) or the desired solvent for the respective positive and negative controls was added to thereby provide a total of about 200 μL in the first well of the each respective row. A multi-channel pipette was then utilized to prepare a two-fold dilution in each column. Specifically, a multi-channel pipette set to about 100 μL was utilized to mix and transfer about 100 μL of the 200 μL from the wells of the first column to the respective wells of a subsequent column. This was repeated for each of the remaining eleven columns. About 100 μL of the twelfth column was removed, thereby leaving about 100 μL in each of the 96 wells. […] Specifically, a phosphate buffered saline (PBS) was utilized for the negative control. About 100 μL of the respective bacteria adjusted to 0.1 optical density (OD) bacteria was added to all other wells. The well plate was then incubated overnight at about 37° C. in a growth inhibition assay machine. Measurements were taken at about one hour increments.

Compound: CCCCCCC(CO)CCCC (stereo not shown) [2-butyl octanol, 2-butyl-1-octanol]
- Measured Optical Density of S. Epidermidis (0.02% 2-Butyl Octanol, 1 Hour): 0.07
- Measured Optical Density of S. Epidermidis (0.02% 2-Butyl Octanol, 2 Hour): 0.327
- Measured Optical Density of S. Epidermidis (0.02% 2-Butyl Octanol, 3 Hour): 0.519
- Measured Optical Density of S. Epidermidis (0.02% 2-Butyl Octanol, 4 Hour): 0.561
- Measured Optical Density of S. Epidermidis (0.02% 2-Butyl Octanol, 5 Hour): 0.548
- Measured Optical Density of S. Epidermidis (0.02% 2-Butyl Octanol, 6 Hour): 0.564
- Measured Optical Density of S. Epidermidis (0.02% 2-Butyl Octanol, 7 Hour): 0.586
- Measured Optical Density of S. Epidermidis (0.02% 2-Butyl Octanol, 8 Hour): 0.593
- Measured Optical Density of S. Epidermidis (0.02% 2-Butyl Octanol, 9 Hour): 0.602
- Measured Optical Density of S. Epidermidis (0.02% 2-Butyl Octanol, 10 Hour): 0.623
- Measured Optical Density of S. Epidermidis (0.02% 2-Butyl Octanol, 11 Hour): 0.652
- Measured Optical Density of S. Epidermidis (0.02% 2-Butyl Octanol, 12 Hour): 0.651
- Measured Optical Density of S. Epidermidis (0.02% 2-Butyl Octanol, 13 Hour): 0.66
- Measured Optical Density of S. Epidermidis (0.02% 2-Butyl Octanol, 14 Hour): 0.689
- Measured Optical Density of S. Epidermidis (0.02% 2-Butyl Octanol, 15 Hour): 0.809
- Measured Optical Density of S. Epidermidis (0.02% 2-Butyl Octanol, 16 Hour): 0.893
- Measured Optical Density of S. Epidermidis (0.02% 2-Butyl Octanol, 17 Hour): 0.951
- Measured Optical Density of S. Epidermidis (0.02% 2-Butyl Octanol, 18 Hour): 0.97
- Measured Optical Density of S. Epidermidis (0.04% 2-Butyl Octanol, 1 Hour): 0.088
- Measured Optical Density of S. Epidermidis (0.04% 2-Butyl Octanol, 2 Hour): 0.351
- Measured Optical Density of S. Epidermidis (0.04% 2-Butyl Octanol, 3 Hour): 0.55
- Measured Optical Density of S. Epidermidis (0.04% 2-Butyl Octanol, 4 Hour): 0.583
- Measured Optical Density of S. Epidermidis (0.04% 2-Butyl Octanol, 5 Hour): 0.578
- Measured Optical Density of S. Epidermidis (0.04% 2-Butyl Octanol, 6 Hour): 0.592
- Measured Optical Density of S. Epidermidis (0.04% 2-Butyl Octanol, 7 Hour): 0.613
- Measured Optical Density of S. Epidermidis (0.04% 2-Butyl Octanol, 8 Hour): 0.64
- Measured Optical Density of S. Epidermidis (0.04% 2-Butyl Octanol, 9 Hour): 0.651
- Measured Optical Density of S. Epidermidis (0.04% 2-Butyl Octanol, 10 Hour): 0.664
- Measured Optical Density of S. Epidermidis (0.04% 2-Butyl Octanol, 11 Hour): 0.666
- Measured Optical Density of S. Epidermidis (0.04% 2-Butyl Octanol, 12 Hour): 0.656
- Measured Optical Density of S. Epidermidis (0.04% 2-Butyl Octanol, 13 Hour): 0.652
- Measured Optical Density of S. Epidermidis (0.04% 2-Butyl Octanol, 14 Hour): 0.675
- Measured Optical Density of S. Epidermidis (0.04% 2-Butyl Octanol, 15 Hour): 0.756
- Measured Optical Density of S. Epidermidis (0.04% 2-Butyl Octanol, 16 Hour): 0.825
- Measured Optical Density of S. Epidermidis (0.04% 2-Butyl Octanol, 17 Hour): 0.915
- Measured Optical Density of S. Epidermidis (0.04% 2-Butyl Octanol, 18 Hour): 0.961
- Measured Optical Density of S. Epidermidis (0.08% 2-Butyl Octanol, 1 Hour): 0.111
- Measured Optical Density of S. Epidermidis (0.08% 2-Butyl Octanol, 2 Hour): 0.482
- Measured Optical Density of S. Epidermidis (0.08% 2-Butyl Octanol, 3 Hour): 0.688
- Measured Optical Density of S. Epidermidis (0.08% 2-Butyl Octanol, 4 Hour): 0.703
- Measured Optical Density of S. Epidermidis (0.08% 2-Butyl Octanol, 5 Hour): 0.684
- Measured Optical Density of S. Epidermidis (0.08% 2-Butyl Octanol, 6 Hour): 0.677
- Measured Optical Density of S. Epidermidis (0.08% 2-Butyl Octanol, 7 Hour): 0.662
- Measured Optical Density of S. Epidermidis (0.08% 2-Butyl Octanol, 8 Hour): 0.652
- Measured Optical Density of S. Epidermidis (0.08% 2-Butyl Octanol, 9 Hour): 0.653
- Measured Optical Density of S. Epidermidis (0.08% 2-Butyl Octanol, 10 Hour): 0.658
- Measured Optical Density of S. Epidermidis (0.08% 2-Butyl Octanol, 11 Hour): 0.646
- Measured Optical Density of S. Epidermidis (0.08% 2-Butyl Octanol, 12 Hour): 0.63
- Measured Optical Density of S. Epidermidis (0.08% 2-Butyl Octanol, 13 Hour): 0.632
- Measured Optical Density of S. Epidermidis (0.08% 2-Butyl Octanol, 14 Hour): 0.662
- Measured Optical Density of S. Epidermidis (0.08% 2-Butyl Octanol, 15 Hour): 0.741
- Measured Optical Density of S. Epidermidis (0.08% 2-Butyl Octanol, 16 Hour): 0.795
- Measured Optical Density of S. Epidermidis (0.08% 2-Butyl Octanol, 17 Hour): 0.883
- Measured Optical Density of S. Epidermidis (0.08% 2-Butyl Octanol, 18 Hour): 0.943
- Measured Optical Density of S. Epidermidis (0.16% 2-Butyl Octanol, 1 Hour): 0.148
- Measured Optical Density of S. Epidermidis (0.16% 2-Butyl Octanol, 2 Hour): 0.564
- Measured Optical Density of S. Epidermidis (0.16% 2-Butyl Octanol, 3 Hour): 0.76
- Measured Optical Density of S. Epidermidis (0.16% 2-Butyl Octanol, 4 Hour): 0.786
- Measured Optical Density of S. Epidermidis (0.16% 2-Butyl Octanol, 5 Hour): 0.778
- Measured Optical Density of S. Epidermidis (0.16% 2-Butyl Octanol, 6 Hour): 0.764
- Measured Optical Density of S. Epidermidis (0.16% 2-Butyl Octanol, 7 Hour): 0.757
- Measured Optical Density of S. Epidermidis (0.16% 2-Butyl Octanol, 8 Hour): 0.741
- Measured Optical Density of S. Epidermidis (0.16% 2-Butyl Octanol, 9 Hour): 0.729
- Measured Optical Density of S. Epidermidis (0.16% 2-Butyl Octanol, 10 Hour): 0.726
- Measured Optical Density of S. Epidermidis (0.16% 2-Butyl Octanol, 11 Hour): 0.718
- Measured Optical Density of S. Epidermidis (0.16% 2-Butyl Octanol, 12 Hour): 0.702
- Measured Optical Density of S. Epidermidis (0.16% 2-Butyl Octanol, 13 Hour): 0.695
- Measured Optical Density of S. Epidermidis (0.16% 2-Butyl Octanol, 14 Hour): 0.702
- Measured Optical Density of S. Epidermidis (0.16% 2-Butyl Octanol, 15 Hour): 0.764
- Measured Optical Density of S. Epidermidis (0.16% 2-Butyl Octanol, 16 Hour): 0.801
- Measured Optical Density of S. Epidermidis (0.16% 2-Butyl Octanol, 17 Hour): 0.844
- Measured Optical Density of S. Epidermidis (0.16% 2-Butyl Octanol, 18 Hour): 0.874
- growth of S. epidermidis (2-butyl octanol about 0.02 weight % to about 5.2 weight %): did not inhibit the growth of and/or promoted the growth of
- Measured Optical Density of S. Epidermidis (5.2% 2-Butyl Octanol, 1 Hour): 0.257
- Measured Optical Density of S. Epidermidis (5.2% 2-Butyl Octanol, 2 Hour): 0.501
- Measured Optical Density of S. Epidermidis (5.2% 2-Butyl Octanol, 3 Hour): 0.583
- Measured Optical Density of S. Epidermidis (5.2% 2-Butyl Octanol, 4 Hour): 0.624
- Measured Optical Density of S. Epidermidis (5.2% 2-Butyl Octanol, 5 Hour): 0.665
- Measured Optical Density of S. Epidermidis (5.2% 2-Butyl Octanol, 6 Hour): 0.723
- Measured Optical Density of S. Epidermidis (5.2% 2-Butyl Octanol, 7 Hour): 0.855
- Measured Optical Density of S. Epidermidis (5.2% 2-Butyl Octanol, 8 Hour): 0.918
- Measured Optical Density of S. Epidermidis (5.2% 2-Butyl Octanol, 9 Hour): 0.994
- Measured Optical Density of S. Epidermidis (5.2% 2-Butyl Octanol, 10 Hour): 1.052
- Measured Optical Density of S. Epidermidis (5.2% 2-Butyl Octanol, 11 Hour): 1.067
- Measured Optical Density of S. Epidermidis (5.2% 2-Butyl Octanol, 12 Hour): 1.066
- Measured Optical Density of S. Epidermidis (5.2% 2-Butyl Octanol, 13 Hour): 1.081
- Measured Optical Density of S. Epidermidis (5.2% 2-Butyl Octanol, 14 Hour): 1.105
- Measured Optical Density of S. Epidermidis (5.2% 2-Butyl Octanol, 15 Hour): 1.118
- Measured Optical Density of S. Epidermidis (5.2% 2-Butyl Octanol, 16 Hour): 1.127
- Measured Optical Density of S. Epidermidis (5.2% 2-Butyl Octanol, 17 Hour): 1.142
- Measured Optical Density of S. Epidermidis (5.2% 2-Butyl Octanol, 18 Hour): 1.127
